Test results reported in paper PMC8162404, “Proteomimetic surface fragments distinguish targets by function” (Chemical Science, 2020).

Assays:
RecQ-WH [1] = molecular target: T1, RecQ-WH (Escherichia coli, UniProt P15043); assay: Pull-down assay with immobilized protein and LSM libraries; parameters: species or system E. coli; details: H14 library; 1:1 binding assumed; read-out: Surface mapping KD (apparent)
T1 construct: coding for residues 408– 523 of E. coli RecQ; made in house; host or cells: E. coli BL21(DE3)
T1 sequence (P15043 408-523): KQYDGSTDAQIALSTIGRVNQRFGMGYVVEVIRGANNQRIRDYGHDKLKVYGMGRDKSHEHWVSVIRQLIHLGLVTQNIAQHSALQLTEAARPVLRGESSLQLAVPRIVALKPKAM
In short: (§1)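 His-tagged protein immobilized on Co-NTA resin (64 µM) in 20 mM HEPES pH 7.4, 150 mM NaCl, equilibrated 30 min at room temperature with foldamer LSM sublibraries at equimolar total concentration. Unbound fractions quantified by HPLC-MS versus protein-free resin control; apparent KD assumes 1:1 binding.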

S100B [2] = molecular target: T2, S100B (Homo sapiens, UniProt P04271); assay: Competition pull-down with native ligand RSK1 (689–735); format: binding; details: H14 library; competitor peptide 200 µM; read-out: Surface mapping KD (apparent), competition
T2 construct: made in house; host or cells: Escherichia coli BL21(DE3)
T2 sequence (P04271 1-92): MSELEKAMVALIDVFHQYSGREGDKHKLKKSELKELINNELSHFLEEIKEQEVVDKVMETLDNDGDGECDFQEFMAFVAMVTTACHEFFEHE

CaM [3] = molecular target: T3, CaM (Bos taurus, UniProt P62157); assay: Pull-down assay with immobilized protein and LSM libraries; format: binding, bovine; details: H14 library; 1:2 stoichiometry assumed; read-out: Surface mapping KD (apparent)
T3 construct: made in house; host or cells: E. coli BL21 (DE3)
In short: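 His-tagged protein immobilized on Co-NTA resin, equilibrated 30 min at room temperature with LSM sublibraries (64 members, […]), equimolar protein to total probe. CaM buffer: 20 mM HEPES pH 7.4, 150 mM NaCl, 5 mM CaCl2. Bound fractions from HPLC-MS loss of unbound probe versus protein-free resin control; Kd derived.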

Gal-1 [4] = molecular target: T4, Gal-1 (Homo sapiens, UniProt P09382); assay: Competition pull-down with lactose; format: binding; details: H14 library; lactose 10 mM; read-out: Surface mapping KD (apparent), competition
T4 construct: made in house; host or cells: E. coli BL21(DE3)
T4 sequence (P09382 whole entry): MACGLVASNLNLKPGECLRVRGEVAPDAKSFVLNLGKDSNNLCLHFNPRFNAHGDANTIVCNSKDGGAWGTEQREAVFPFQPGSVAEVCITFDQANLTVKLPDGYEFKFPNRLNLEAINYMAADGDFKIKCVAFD
In short: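 His6-tagged proteins immobilized on Co-NTA resin at 64 µM final with 64-member LSM foldamer sublibraries (1 M each, as printed) in pH 7.4 HEPES/NaCl buffers (Ca2+/TCEP per target), 30 min RT; competitor peptides 200 µM final, lactose 10 mM for Gal-1. Bound fractions from LC-MS loss vs protein-free resin; KD assuming 1:1 binding.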

Gal-1 [5] = molecular target: T4, Gal-1; assay: Pull-down assay with immobilized protein and LSM libraries; format: binding; details: H14 library; 1:1 binding assumed; read-out: Surface mapping KD (apparent)
In short: as §1

S100B [6] = molecular target: T2, S100B; assay: as above; format: binding; details: for Kd: H14 library, 1:1 binding assumed, read-out: Surface mapping KD (apparent)
In short: (§2)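 Buffers were HEPES pH 7.4 with 150 mM NaCl, plus 1 mM TCEP and 1 mM CaCl2 (50 mM HEPES) for S100A4 and S100B, 1 mM TCEP for Gal-1, and no additive for RecQ-WH. Immobilized protein at 64 µM was equilibrated 30 min with the LSM sublibrary, and unbound probes were measured by LC-MS.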

S100A4 = molecular target: T5, S100A4 (Homo sapiens, UniProt P26447); assay: as above; format: binding; details: for Kd: H14 library, 1:1 binding assumed, read-out: Surface mapping KD (apparent)
T5 construct: made in house; host or cells: Escherichia coli BL21(DE3)
T5 sequence (P26447 whole entry): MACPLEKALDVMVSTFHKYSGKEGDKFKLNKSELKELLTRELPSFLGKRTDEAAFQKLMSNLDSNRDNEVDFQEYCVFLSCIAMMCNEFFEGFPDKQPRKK
In short: as §2

CaM [7] = molecular target: T3, CaM; assay: Competition pull-down with native ligand TRPV1-Ct15; format: binding, bovine; details: H14 library; competitor peptide 200 µM; read-out: Surface mapping KD (apparent), competition
RecQ-WH [8] = molecular target: T1, RecQ-WH; assay: Competition pull-down with native ligand SSB-Ct8; format: binding, E. coli; details: H14 library; competitor peptide 200 µM; read-out: Surface mapping KD (apparent), competition
[9] = H14 probes selected for validation

Structure (SMILES)	Kd (RecQ-WH [1]) [µM]	Kd (S100B [2]) [µM]	Kd (CaM [3]) [µM]	Kd (Gal-1 [4]) [µM]	Kd (Gal-1 [5]) [µM]	Kd (S100B [6]) [µM]	Binding (S100B [6]; H14 probes)	Affinity class of probe (high, medium, low) in pull-down (S100B [6]; [9])	Kd (S100A4) [µM]	Binding (S100A4; H14 probes)	Affinity class of probe (high, medium, low) in pull-down (S100A4; [9])	Kd (CaM [7]) [µM]	Kd (RecQ-WH [8]) [µM]
C[C@@H](O)[C@@H](CC(=O)N[C@H]1CCCC[C@@H]1C(=O)N[C@H]1CCCC[C@@H]1C(=O)N[C@H](CC(=O)N[C@H]1CCCC[C@@H]1C(N)=O)Cc1c[nH]c2ccccc12)NC(=O)[C@H]1CCCC[C@@H]1N [H14 TW]	288	258	16	147	143	47	binds	medium	189	does not	low		
C[C@@H](CC(=O)N[C@H]1CCCC[C@@H]1C(N)=O)NC(=O)[C@H]1CCCC[C@@H]1NC(=O)[C@H]1CCCC[C@@H]1NC(=O)C[C@H](Cc1c[nH]c2ccccc12)NC(=O)[C@H]1CCCC[C@@H]1N [H14 WA]	293	220	3			58			55			307	
NC(=O)[C@H]1CCCC[C@@H]1NC(=O)C[C@H](CC(=O)O)NC(=O)[C@H]1CCCC[C@@H]1NC(=O)[C@H]1CCCC[C@@H]1NC(=O)C[C@H](Cc1c[nH]c2ccccc12)NC(=O)[C@H]1CCCC[C@@H]1N [H14 WD]	145		308										479
NCCCC[C@@H](CC(=O)N[C@H]1CCCC[C@@H]1C(N)=O)NC(=O)[C@H]1CCCC[C@@H]1NC(=O)[C@H]1CCCC[C@@H]1NC(=O)C[C@H](Cc1c[nH]c2ccccc12)NC(=O)[C@H]1CCCC[C@@H]1N [H14 WK]	287	412	1.1	252	262	40			136			201	
N=C(N)NCCC[C@@H](CC(=O)N[C@H]1CCCC[C@@H]1C(N)=O)NC(=O)[C@H]1CCCC[C@@H]1NC(=O)[C@H]1CCCC[C@@H]1NC(=O)C[C@H](Cc1c[nH]c2ccccc12)NC(=O)[C@H]1CCCC[C@@H]1N [H14 WR]	272	166	0.5	280	278	32			81			167	
C[C@@H](O)[C@@H](CC(=O)N[C@H]1CCCC[C@@H]1C(N)=O)NC(=O)[C@H]1CCCC[C@@H]1NC(=O)[C@H]1CCCC[C@@H]1NC(=O)C[C@H](Cc1c[nH]c2ccccc12)NC(=O)[C@H]1CCCC[C@@H]1N [H14 WT]	165	242	6			107			157			135	
C[C@@H](CC(=O)N[C@H]1CCCC[C@@H]1C(N)=O)NC(=O)[C@H]1CCCC[C@@H]1NC(=O)[C@H]1CCCC[C@@H]1NC(=O)C[C@H](Cc1ccc(O)cc1)NC(=O)[C@H]1CCCC[C@@H]1N [H14 YA]	329	436	15		342				217			366	
CC[C@H](C)[C@@H](CC(=O)N[C@H]1CCCC[C@@H]1C(N)=O)NC(=O)[C@H]1CCCC[C@@H]1NC(=O)[C@H]1CCCC[C@@H]1NC(=O)C[C@H](Cc1ccc(O)cc1)NC(=O)[C@H]1CCCC[C@@H]1N [H14 YI]	150	201	2	256	148	62			19			428	
CC(C)C[C@@H](CC(=O)N[C@H]1CCCC[C@@H]1C(N)=O)NC(=O)[C@H]1CCCC[C@@H]1NC(=O)[C@H]1CCCC[C@@H]1NC(=O)C[C@H](Cc1ccc(O)cc1)NC(=O)[C@H]1CCCC[C@@H]1N [H14 YL]	150	201	2	256	148	62			19			428	
CSCC[C@@H](CC(=O)N[C@H]1CCCC[C@@H]1C(N)=O)NC(=O)[C@H]1CCCC[C@@H]1NC(=O)[C@H]1CCCC[C@@H]1NC(=O)C[C@H](Cc1ccc(O)cc1)NC(=O)[C@H]1CCCC[C@@H]1N [H14 YM]	263	344	7	133	98	176			90			402	
